Biological target: Factor D (Homo sapiens (Human), UniProt P00746)
Test: Factor D esterolytic assay
Type: biochemical
Conditions: Z-Lys-SBzl substrate, 100 mM HEPES, 500 mM NaCl, pH 7.5, 10% DMSO; tested a minimum of three times; read-out: Measured Ki (IC50) Value for Compounds: IC50
In short: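 Chromogenic thioesterase read-out: Z-Lys-SBzl (1.29 mM) hydrolysis by human Factor D, thiol detected with DTNB at 405 nm (690 nm background subtracted) for 600 s. Run in 100 mM HEPES, 500 mM NaCl, pH 7.5, 10% DMSO, substrate added immediately or after room-temperature preincubation. IC50 from percent inhibition versus enzyme alone, n≥3.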

Chain of Factor D (P00746 26-253): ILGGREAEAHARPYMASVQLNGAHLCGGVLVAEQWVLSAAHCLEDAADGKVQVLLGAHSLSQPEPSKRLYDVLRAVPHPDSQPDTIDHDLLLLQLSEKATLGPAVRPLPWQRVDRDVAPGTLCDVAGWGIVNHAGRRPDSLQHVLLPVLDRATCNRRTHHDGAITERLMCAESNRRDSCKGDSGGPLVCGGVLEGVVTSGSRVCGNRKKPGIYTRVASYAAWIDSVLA

SMILES | IC50 [nM]
COc1c(-c2ccc3c(c2)c(COc2ccccc2CC(=O)O)nn3C2CCC2)ccnc1CN [Compound 328d, 2-(2-((5-(2-(aminomethyl)-3-methoxypyridin-4-yl)-1-cyclobutyl-1H-indazol-3-yl)methoxy)phenyl)acetic acid] | > 10000
COc1c(CN)cccc1-c1ccc2c(c1)c(COc1ccccc1CC(=O)O)nn2C(C)C [Compound 325b, 2-(2-((5-(3-(aminomethyl)-2-methoxyphenyl)-1-isopropyl-1H-indazol-3-yl)methoxy)phenyl)acetic acid] | 1000 to 10000
NCc1cccc(-c2coc3c(COc4ccccc4CC(=O)O)cccc23)c1 [Compound 96e, 2-(2-((3-(3-(aminomethyl)phenyl)benzofuran-7-yl)methoxy)phenyl)acetic acid] | > 10000
COc1c(-c2ccc3c(c2)c(COc2ccccc2CC(=O)O)nn3C2CCCC2)ccnc1CN [Compound 327d, 2-(2-((5-(2-(aminomethyl)-3-methoxypyridin-4-yl)-1-cyclopentyl-1H-indazol-3-yl)methoxy)phenyl)acetic acid] | 1000 to 10000
NCc1cccc(-c2cc(OCCC3CCOCC3)c3occ(COc4ccccc4CC(=O)O)c3c2)c1 [Compound 249f, 2-(2-((5-(3-(aminomethyl)phenyl)-7-(2-(tetrahydro-2H-pyran-4-yl)ethoxy)benzofuran-3-yl)methoxy)phenyl)acetic acid] | < 1000
Cc1ccc(CC(=O)O)c(OCc2c(C(C)(C)C)oc3ccc(-c4cccc(CN)c4)cc23)c1 [Compound 176c, 2-(2-((5-(3-(aminomethyl)phenyl)-2-(tert-butyl)benzofuran-3-yl)methoxy)-4-methylphenyl)acetic acid] | < 1000
CCCC(C(=O)O)c1ccccc1OCc1nn(C(C)C)c2ccc(-c3cccc(CN)c3)cc12 (centres unmarked) [Compound 246f, 2-(2-((5-(3-(aminomethyl)phenyl)-1-isopropyl-1H-indazol-3-yl)methoxy)phenyl)pentanoic acid] | 1000 to 10000
NCc1cccc(-c2cc(CN3CCC3)c3occ(COc4ccccc4CC(=O)O)c3c2)c1 [Compound 207d, 2-(2-((5-(3-(aminomethyl)phenyl)-7-(azetidin-1-ylmethyl)benzofuran-3-yl)methoxy)phenyl)acetic acid] | < 1000
NCc1cccc(-c2cc(-c3ccccc3)c3occ(COc4ccccc4CC(=O)O)c3c2)c1 [Compound 135c, 2-(2-((5-(3-(aminomethyl)phenyl)-7-phenylbenzofuran-3-yl)methoxy)phenyl)acetic acid] | < 1000
COc1cc2occ(COc3ccccc3CC(=O)O)c2cc1-c1cccc(CN)c1 [Compound 69f, 2-(2-((5-(3-(aminomethyl)phenyl)-6-methoxybenzofuran-3-yl)methoxy)phenyl)acetic acid] | < 1000
NCc1cccc(-c2ccc3oc(F)c(COc4ccccc4CC(=O)O)c3c2)c1 [Compound 204c, 2-(2-((5-(3-(aminomethyl)phenyl)-2-fluorobenzofuran-3-yl)methoxy)phenyl)acetic acid] | < 1000
NCc1cccc(-c2ccc3ncc(COc4ccccc4CC(=O)O)n3c2)c1 [Compound 65e, 2-(2-((6-(3-(aminomethyl)phenyl)imidazo[1,2-a]pyridin-3-yl)methoxy)phenyl)acetic acid] | < 1000
Cc1cccc(C)c1-c1cc(-c2cccc(CN)c2)cc2c(COc3ccccc3CC(=O)O)coc12 [Compound 220c, 2-(2-((5-(3-(aminomethyl)phenyl)-7-(2,6-dimethylphenyl)benzofuran-3-yl)methoxy)phenyl)acetic acid] | < 1000
NCc1cccc(-c2cc(C3CC3)c3occ(COc4ccccc4CC(=O)O)c3c2)c1 [Compound 120c, 2-(2-((5-(3-(aminomethyl)phenyl)-7-cyclopropylbenzofuran-3-yl)methoxy)phenyl)acetic acid] | < 1000
NCc1cccc(-c2ccc3occ(COc4c(CN)cccc4CC(=O)O)c3c2)c1 [Compound 145c, 2-(3-(aminomethyl)-2-((5-(3-(aminomethyl)phenyl)benzofuran-3-yl)methoxy)phenyl)acetic acid] | < 1000

Results, then the compound that gave them:

IC50 [nM] | SMILES
< 1000 | Cn1cc(-c2cc(-c3cccc(CN)c3)cc3c(COc4ccccc4CC(=O)O)c(C(=O)O)oc23)cn1 [Compound 60d, 5-(3-(aminomethyl)phenyl)-3-((2-(carboxymethyl)phenoxy)methyl)-7-(1-methyl-1H-pyrazol-4-yl)benzofuran-2-carboxylic acid]
< 1000 | NCc1nccc(-c2ccc3occ(COc4ccccc4CC(=O)O)c3c2)c1F [Compound 50d, 2-(2-((5-(2-(aminomethyl)-3-fluoropyridin-4-yl)benzofuran-3-yl)methoxy)phenyl)acetic acid]
< 1000 | CN(Cc1cc(-c2cccc(CN)c2)cc2c(COc3ccccc3CC(=O)O)coc12)CC1CC1 [Compound 263e, 2-(2-((5-(3-(aminomethyl)phenyl)-7-(((cyclopropylmethyl)(methyl)amino)methyl)benzofuran-3-yl)methoxy)phenyl)acetic acid]
< 1000 | NCc1cccc(-c2ccc3occ(COc4cccc(F)c4CC(=O)O)c3c2)c1 [Compound 126f, 2-(2-((5-(3-(aminomethyl)phenyl)benzofuran-3-yl)methoxy)-6-fluorophenyl)acetic acid]
< 1000 | NCc1cccc(-c2ccc3c(c2)c(COc2ccccc2CC(=O)O)nn3-c2cccnc2)c1 [Compound 264c, 2-(2-((5-(3-(aminomethyl)phenyl)-1-(pyridin-3-yl)-1H-indazol-3-yl)methoxy)phenyl)acetic acid]
< 1000 | C[C@H](N)c1cccc(-c2ccc3occ(COc4ccccc4CC(=O)O)c3c2)c1 [Compound 54c, (S)-2-(2-((5-(3-(1-aminoethyl)phenyl)benzofuran-3-yl)methoxy)phenyl)acetic acid]
< 1000 | NCc1cccc(-c2ccc3[nH]cc(C(=O)Nc4ccccc4CC(=O)O)c3n2)c1 [Compound 14c, 2-(2-(5-(3-(aminomethyl)phenyl)-1H-pyrrolo[3,2-b]pyridine-3-carboxamido)phenyl)acetic acid]
< 1000 | CC(C)c1ccccc1-c1cc(-c2cccc(CN)c2)cc2c(COc3ccccc3CC(=O)O)coc12 [Compound 219c, 2-(2-((5-(3-(aminomethyl)phenyl)-7-(2-isopropylphenyl)benzofuran-3-yl)methoxy)phenyl)acetic acid]
< 1000 | CCOC(=O)Cc1ccccc1OCc1cc(-c2cccc(CN)c2)c2oc(COc3ccccc3CC(=O)O)cc2c1 [Compound 22e, 2-(2-((7-(3-(aminomethyl)phenyl)-5-((2-(2-ethoxy-2-oxoethyl)phenoxy)methyl)benzofuran-2-yl)methoxy)phenyl)acetic acid]
< 1000 | COc1ccc(CC(=O)O)c(OCc2coc3c(OC)cc(-c4cccc(CN)c4)cc23)c1 [Compound 251c, 2-(2-((5-(3-(aminomethyl)phenyl)-7-methoxybenzofuran-3-yl)methoxy)-4-methoxyphenyl)acetic acid]
< 1000 | CCOC(=O)Cc1ccc(OC)cc1OCc1nn(C)c2ccc(-c3ccnc(CN)c3)cc12 [Compound 315b, ethyl 2-(2-((5-(2-(aminomethyl)pyridin-4-yl)-1-methyl-1H-indazol-3-yl)methoxy)-4-methoxyphenyl)acetate]
< 1000 | NCc1cccc(-c2ccc3occ(COc4cc(C(N)=O)ccc4CC(=O)O)c3c2)c1 [Compound 63c, 2-(2-((5-(3-(aminomethyl)phenyl)benzofuran-3-yl)methoxy)-4-carbamoylphenyl)acetic acid]
< 1000 | CC(C)(C)c1oc2ccc(-c3cccc(CN)c3)cc2c1COc1ccccc1CC(=O)O [Compound 171i, 2-(2-((5-(3-(aminomethyl)phenyl)-2-(tert-butyl)benzofuran-3-yl)methoxy)phenyl)acetic acid]
< 1000 | NCc1cccc(-c2cc(Cn3ccnc3)c3occ(COc4ccccc4CC(=O)O)c3c2)c1 [Compound 155e, 2-(2-((7-((1H-imidazol-1-yl)methyl)-5-(3-(aminomethyl)phenyl)benzofuran-3-yl)methoxy)phenyl)acetic acid]
< 1000 | NCc1cccc(-c2cc(NCC3CCCO3)c3occ(COc4ccccc4CC(=O)O)c3c2)c1 (centres unmarked) [Compound 149d, 2-(2-((5-(3-(aminomethyl)phenyl)-7-(((tetrahydrofuran-2-yl)methyl)amino)benzofuran-3-yl)methoxy)phenyl)acetic acid]
< 1000 | CC(=O)c1oc2ccc(-c3cccc(CN)c3)cc2c1COc1ccccc1CC(=O)O [Compound 141c, 2-(2-((2-acetyl-5-(3-(aminomethyl)phenyl)benzofuran-3-yl)methoxy)phenyl)acetic acid]
< 1000 | NCc1cccc(-c2cc(CN3CC[C@H](F)C3)c3occ(COc4ccccc4CC(=O)O)c3c2)c1 [Compound 180d, (S)-2-(2-((5-(3-(aminomethyl)phenyl)-7-((3-fluoropyrrolidin-1-yl)methyl)benzofuran-3-yl)methoxy)phenyl)acetic acid]
< 1000 | Cc1ccc(CC(=O)O)c(OCc2coc3ccc(-c4cccc(CN)c4)cc23)c1 [Compound 47d, 2-(2-((5-(3-(aminomethyl)phenyl)benzofuran-3-yl)methoxy)-4-methylphenyl)acetic acid]
< 1000 | NCc1cccc(-c2cc(CN3CCNCC3)c3occ(COc4ccccc4CC(=O)O)c3c2)c1 [Compound 122b, 2-(2-((5-(3-(aminomethyl)phenyl)-7-(piperazin-1-ylmethyl)benzofuran-3-yl)methoxy)phenyl)acetic acid]
< 1000 | COc1ccc(CC(=O)O)c(OCc2c(C3CC3)oc3ccc(-c4cccc(CN)c4)cc23)c1 [Compound 247c, 2-(2-((5-(3-(aminomethyl)phenyl)-2-cyclopropylbenzofuran-3-yl)methoxy)-4-methoxyphenyl)acetic acid]

Reference: US20250186391A1, “ORAL COMPLEMENT FACTOR D INHIBITORS” (BioCryst Pharmaceuticals, Inc., priority 2019, published 2025)
